Laboratory results: patent US6900182B1, “Inositolphosphoglycan and ribose for treatment of ischaemia-reperfusion injury” (Sylus Pharmaceuticals Ltd., priority 1998, dated 2005)

Assays:
[1] = tested on: rat heart preparations; assay: tissue PRPP concentration of rat heart preparations in anoxic conditions; details: ribose added to the medium
From the text: Perhaps of greater significance was our observation of the decline in cellular PRPP in a range of tissues, including heart, in experimental diabetes (see Table 1).

[2] = tested on: myocardial adenine nucleotides; details: cited from earlier work
[3] = tested on: IPG P-type; assay: extractable IPG P-type from tissues before and after insulin (PDH phosphatase assay); format: in vivo, rats; details: 2 minutes after injection with insulin
Method: FIGS. 4C and 4D show the steady state concentration and the effect of insulin on extractable IPG P-type from heart and other tissues from adult male rats. […] The solid columns show results in the absence of insulin, while the hatched columns show results 2 minutes after injection with insulin. 1 unit is the amount of P-type IPG causing a 50% increase in the activity of PDH phosphatase or a 50% decrease in the activity of cAMP dependent protein kinase.
Under anoxic conditions, this is difficult since the enzyme PDH kinase is activated. The action of this enzyme is to inactivate the PDH complex, which is involved in the biosynthesis of acetyl-CoA and NADH. The NADH so generated in the reperfusion period is oxidized by the electron transport chain to generate ATP. The acetyl-CoA is a substrate for the Krebs cycle in which one glucose can be oxidized to 36 ATPs via the generation of further NADH. The action of IPG-P type mediators is to activate PDH phosphatase which counteracts the PDH kinase and allows for activation of the PDH complex.

| Compound | tissue PRPP concentration [1] | restitution of myocardial adenine nucleotides ([2]; Zimmer (1980)) | global heart function ([2]; overloaded and catecholamine-stimulated heart and infarcted heart rat models, Zimmer (1996)) | normalisation of depressed heart function ([2]; rats, Zimmer (1983)) | IPG P-type activity recovered from tissue upon insulin infusion ([3]; adipose tissue) | IPG P-type activity recovered from tissue upon insulin infusion ([3]; brain) | IPG P-type activity recovered from tissue upon insulin infusion ([3]; heart) | IPG P-type activity recovered from tissue upon insulin infusion ([3]; kidney) | IPG P-type activity recovered from tissue upon insulin infusion ([3]; muscle) |
| --- | --- | --- | --- | --- | --- | --- | --- | --- | --- |
| O=C[C@H](O)[C@H](O)[C@H](O)CO [ribose] | partially restored | accelerated | improvement in global heart function | accelerated | – | – | – | – | – |
| insulin | – | – | – | – | decreased activity | decreased activity | decreased activity | increase in activity | increase in activity |
